# According to paper PMC6902048, “UGT85A84 Catalyzes the Glycosylation of Aromatic Monoterpenes in Osmanthus fragrans Lour. Flowers” (Frontiers in Plant Science, 2019):
# Values joined by “and” are separate entries in the source; they are usually repeats but may differ in a detail not shown here. Equal entries are not always repeated.
# Experiments:
# CsGT1 = tested on: CsGT1; design: method as in Shoji et al., 2015; conditions: geraniol = 100%; ref Shoji et al., 2015; cited from earlier work
# UGTs from Vitis vinifera = tested on: UGTs from Vitis vinifera; design: method as in Friedericke et al., 2014a; Friedericke et al., 2014b; conditions: several Vitis vinifera UGTs, enzymes not named, ref Friedericke et al., 2014a, 2014b; cited from earlier work
# [1] = tested on: UGTs from Camellia sinensis; design: method as in Shoji et al., 2015; conditions: enzymes not named, ref Shoji et al., 2015; cited from earlier work
# [2] = tested on: UGTs from Actinidia deliciosa; design: method as in Yar-Khing et al., 2014; conditions: Actinidia deliciosa UGT; ref Yar-Khing et al., 2014; cited from earlier work
# UGT85A84 [3] = experiment: OfUGT85A84 enzyme assay with purified recombinant protein (LC-MS, Michaelis-Menten fitting); format: biochemical, Osmanthus fragrans; conditions: for Glycosylated products formed with the sugar donor (LC-MS): 0.5 mM sugar donor with 0.5 mM linalool or linalool oxide, 1 h or 16 h incubation at 37°C
# Procedure: The full-length UGT85A84 ORF was amplified and cloned into the pET21b and pET15b expression vectors (Novagen) using the primers listed in Table S2 . The two plasmids were co-transformed into Escherichia. coli BL21 (DE3) pLysS cells (Promega, Madison, WI, USA). The co-transformed cells were cultured in lysogeny broth medium supplemented with 100 µg/ml ampicillin at 37°C until OD600 approached 1.0–1.2. The temperature was then shifted to 16°C, and the cells were incubated with 0.2 mM isopropyl β-D-1-thiogalactopyranoside for 16 h. Subsequently, the cells were harvested by centrifugation, resuspended in lysis buffer (pH 8.0) containing 25 mM Tris-HCl and 150 mM NaCl and lysed by a JN-02 homogenizer. […] The eluted protein was further purified by anion-exchange chromatography (Source 15Q 10/100, GE Healthcare) with a linear NaCl gradient in the buffer (pH 8.0) containing 25mM Tris-HCl, 1M NaCl, and 2mM dithiothreitol. Then, the elution peak was concentrated to 1 ml and subjected to size-exclusion chromatography (Superdex-200 Increase 10/300, GE Healthcare) in the buffer (pH 8.0) containing 25mM Tris-HCl, 150mM NaCl, and 5mM dithiothreitol (DTT). The purity of the protein was analyzed by sodium dodecyl sulfate polyacrylamide gel electrophoresis (SDS-PAGE) and the protein was quantified using a NanoDrop 2000 spectrophotometer (Thermo Scientific, USA). Enzymatic activity assays were carried out according to the description by [Shoji et al. (2015)] with modification. […] After incubation of the mixture at 37°C for 16 h, the reaction was terminated by the addition of 1 µl of 24% trichloroacetic acid (TCA). Except for the concentrations of substrates, the same assay conditions were used for measuring the UGT85A84 kinetic parameters. […] All the reactions were incubated at 37°C for 1 h and repeated in triplicate. The reaction products were subjected to LC-MS analysis. The apparent K m and k cat values for each aglycone and sugar donor were determined by Michaelis-Menten fitting in OriginPro 9.1 software. LC-MS analysis was performed in the Thermo Scientific™ UltiMate™ 3000RS system. The separation was conducted on a Thermo Scientific™ Syncronis C18 column (100*2.1 mm, 1.7µm) at 40°C. Mobile phases consisted of phase A referring to water with 0.1% formic acid and phase B referring to methanol with 0.1% formic acid. […] The samples were eluted with the following linear gradient: 0–1min, 2% B; 1–5min, 2-95% B; 5–7min, 95% B; 7–7.1, 95–2% B; 7.1–9, 2% B. The MS analysis was performed on a Thermo Scientific™ Q Exactive Plus hybrid quadrupole-Orbitrap benchtop high-resolution mass spectrometer equipped with heated electrospray ionization. […] Identification of target compounds was carried out using Data-Dependent Acquisition (DDA). The HCD collision energy was set at NCE 20 for negative mode and was set at NCE 30 50 80 for positive mode. Quantification was performed in the full scan negative mode.
# UGT85A84 [4] = experiment: Transient over-expression of OfUGTs in Nicotiana benthamiana leaves with aglycone infiltration, glycosides by GC-MS; format: in vivo, Osmanthus fragrans; conditions: N. benthamiana leaves, 50 µM linalool and 200 µM linalool oxides infiltrated, 4 h; GC-MS after β-glucosidase
# Procedure: Transient expression experiments with Nicotiana benthamiana leaves were performed as described by [Zeng et al. (2016)]. […] Five days after the inoculation, the leaves were infiltrated with different aglycone solutions (50 µM linalool and 200 µM linalool oxides in 0.5 M MES + 1 M MgCl2). Four hours after infiltration, the leaves were detached and frozen at –80°C for glycoside determination ([Yar-Khing et al., 2014]). Glycoside extraction coupled with GC-MS was performed to quantify the glycoside contents according to the previously described methods ([Zheng et al., 2017]).
# The experiments of transient over-expression coupled with the substrate injection in N. benthamiana leaves were conducted to investigate the glycosides produced by candidate OfUGTs in planta. The leaves were infiltrated with Super1300-OfUGT or a control construct in the presence of linalool and its oxides. The glycosides were then extracted and purified after incubation. Subsequently, GC-MS analysis calculated the glycoside contents by quantifying the corresponding aglycones released from the glycosides.
# The N. benthamiana leaves were infiltrated with a control construct (S1300-GUS) or S1300-OfUGTs in the presence of linalool and its oxides. […] Different letters indicate significant difference as determined by one-way ANOVA followed by LSD t-test (P 0.05).
# PpUGT85A2 = tested on: PpUGT85A2; design: method as in Wu et al., 2018; conditions: Prunus persica UGT; ref Wu et al., 2018; cited from earlier work
# [5] = aglycone as varied substrate, fixed UDP-Glc 0.5 mM
# [6] = aglycone as varied substrate, fixed UDP-Glc 0.5 mM, 37°C, 1 h
compound,measurement,setting,value
"OCCc1ccccc1 [2-PE, 2-phenylethanol]",Relative activity of CsGT1 towards substrate,CsGT1,9.2%
C=CC(C)(O)CC/C=C(\C)CO (stereo not drawn) [8-Hydroxylinalool],Km,UGTs from Vitis vinifera,33 ± 1.8 µM
CC/C=C\CCO [(Z)-3-hexenol],Relative activity of CsGT1 towards substrate,CsGT1,62%
CC(C)=CCCC(C)CCO (stereo not drawn) [Citronellol],Km,UGTs from Vitis vinifera,433 µM and 306 µM and 445 µM
CC(C)=CCC/C(C)=C/CO[C@@H]1O[C@H](CO)[C@@H](O)[C@H](O)[C@H]1O [Geranyl β-D-glucopyranoside],Km,[1],78.1 ± 19.6 µM
CCCCCCO [Hexanol],Km,[2],117 ± 28.1 µM
CCCCCC(O)CC (stereo not drawn) [Octan-3-ol],Km,[2],66.6 ± 16.2 µM
CC(C)=CCC[C@H](C)CCO [S-Citronellol],Km,UGTs from Vitis vinifera,55 ± 1.3 µM
"C[C@@H]1O[C@H](OP(=O)(O)OP(=O)(O)OC[C@H]2O[C@@H](n3ccc(=O)[nH]c3=O)[C@H](O)[C@@H]2O)[C@H](O)[C@H](O)[C@H]1O [UDP-Rha, UDP-rhamnose]",Glycosylated products formed with the sugar donor (LC-MS),UGT85A84 [3],No products were detected
"O=c1ccn([C@@H]2O[C@H](COP(=O)(O)OP(=O)(O)O[C@H]3OC[C@@H](O)[C@H](O)[C@H]3O)[C@@H](O)[C@H]2O)c(=O)[nH]1 [UDP-Xyl, UDP-xylose]",Glycosylated products formed with the sugar donor (LC-MS),UGT85A84 [3],No products were detected
OCc1ccccc1 [benzyl alcohol],Relative activity of CsGT1 towards substrate,CsGT1,48%
C=CCc1ccc(O)c(OC)c1 [eugenol],Relative activity of CsGT1 towards substrate,CsGT1,84%
CC(C)=CCC/C(C)=C/CO [geraniol],Km,[2],76.2 ± 11.1 µM
same,Km,[1],44.2 ± 3 µM
same,Relative activity of CsGT1 towards substrate,CsGT1,100%
C=CC1(C)CCC(C(C)(C)O)O1 (stereo not drawn) [linalool oxide],Glycoside of the injected aglycone in UGT85A84-infiltrated leaves versus control,UGT85A84 [4],remarkable increase
same,k cat/K m,UGT85A84 [3]; [5],1.0494e+07 M⁻¹ s⁻¹
same,k cat,UGT85A84 [3]; [6],2.12 S ^-1
C=CC(C)(O)CCC=C(C)C (stereo not drawn) [linalool],Km,PpUGT85A2,463 ± 80 µM
same,Glycoside of the injected aglycone in UGT85A84-infiltrated leaves versus control,UGT85A84 [4],no significant increase
same,Relative activity of CsGT1 towards substrate,CsGT1,1.4%
same,k cat/K m,UGT85A84 [3]; [5],718000 M⁻¹ s⁻¹
same,k cat,UGT85A84 [3]; [6],0.09 S ^-1
same,Km,"UGT85A84 [3]; aglycone as varied substrate, fixed UDP-Glc 0.5 mM, 37°C, 1 h, mean and SEM, n = 3",136 µM
